According to article PMC6374188 (Organic & biomolecular chemistry, 2019):

How the values were obtained:
[1] = target: T1, GlbB (Caldimonas brevitalea, UniProt A8KCI8); assay: steady-state kinetics of hydroxylation; format: biochemical; settings: Fe(II)/alpha-ketoglutarate-dependent C4 hydroxylation
T1 sequence (A8KCI8 1-286): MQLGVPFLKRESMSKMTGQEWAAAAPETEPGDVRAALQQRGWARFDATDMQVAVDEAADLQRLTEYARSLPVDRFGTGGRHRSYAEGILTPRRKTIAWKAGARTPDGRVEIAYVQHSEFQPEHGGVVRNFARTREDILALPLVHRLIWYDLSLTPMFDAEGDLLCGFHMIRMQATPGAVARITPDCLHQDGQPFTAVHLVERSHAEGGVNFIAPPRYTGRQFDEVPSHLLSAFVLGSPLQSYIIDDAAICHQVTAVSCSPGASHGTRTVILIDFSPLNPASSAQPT

[2] = target: T1, GlbB; assay: steady-state kinetics of oxidation; format: biochemical; settings: Fe(II)/alpha-ketoglutarate-dependent; product is the sulfoxide

SMILES	KM [1]	KM [2]
NCCCC[C@H](N)C(=O)O [compound 3, L-Lys]	steady-state kinetic parameters were obtained for hydroxylation of L-Lys, L-Leu, and L-Met (Figure S5)	–
CC(C)C[C@H](N)C(=O)O [L-Leu]	steady-state kinetic parameters were obtained for hydroxylation of L-Lys, L-Leu, and L-Met (Figure S5)	–
CSCC[C@H](N)C(=O)O [L-Met]	–	steady-state kinetic parameters were obtained for hydroxylation of L-Lys, L-Leu, and L-Met (Figure S5)
